Experimental data from ChEMBL document CHEMBL3797052 (Eur J Med Chem, 2016).

Columns and labels:
Type in all cases: functional
[1] = Antiproliferative activity against human Hs 578T cells assessed as cell growth at 10^-5 M after 48 hrs by sulforhodamine B assay; settings: read-out: Activity
[2] = Antiproliferative activity against human BT549 cells assessed as cell growth at 10^-5 M after 48 hrs by sulforhodamine B assay; settings: BT-549, 48 h, read-out: Activity
[3] = Cytotoxicity against human SKBR3 cells assessed as growth inhibition at 100 uM after 2 days by MTT assay; settings: SK-BR-3, 48 h, read-out: GI
[4] = system: A549; test: Antiproliferative activity against human A549/ATCC cells assessed as cell growth at 10^-5 M after 48 hrs by sulforhodamine B assay; settings: A549, 48 h, read-out: Activity
[5] = Antiproliferative activity against human LOXIMVI cells assessed as cell growth at 10^-5 M after 48 hrs by sulforhodamine B assay; settings: LOX IMVI, read-out: Activity
[6] = Cytotoxicity against human SKBR3 cells assessed as growth inhibition at 10 uM after 2 days by MTT assay; settings: SK-BR-3, 48 h, read-out: GI
[7] = system: 786-0; test: Antiproliferative activity against human 786-0 cells assessed as cell growth at 10^-5 M after 48 hrs by sulforhodamine B assay; settings: 786-0, 48 h, read-out: Activity
[8] = system: SR; test: Antiproliferative activity against human SR cells assessed as cell growth at 10^-5 M after 48 hrs by sulforhodamine B assay; settings: read-out: Activity
[9] = system: NCI-H322M; test: Antiproliferative activity against human NCI-H322M cells assessed as cell growth at 10^-5 M after 48 hrs by sulforhodamine B assay; settings: read-out: Activity
[10] = Antiproliferative activity against human OVCAR5 cells assessed as cell growth at 10^-5 M after 48 hrs by sulforhodamine B assay; settings: OVCAR-5, 48 h, read-out: Activity
[11] = Antiproliferative activity against human OVCAR3 cells assessed as cell growth at 10^-5 M after 48 hrs by sulforhodamine B assay; settings: OVCAR-3, 48 h, read-out: Activity
[12] = Cytotoxicity against human HCT116 cells assessed as growth inhibition at 10 uM after 2 days by MTT assay; settings: HCT-116, 48 h, read-out: GI
[13] = system: MDA-MB-435; test: Antiproliferative activity against human MDA-MB-435 cells assessed as cell growth at 10^-5 M after 48 hrs by sulforhodamine B assay; settings: MDA-MB-435, 48 h, read-out: Activity
[14] = Antiproliferative activity against human SNB75 cells assessed as cell growth at 10^-5 M after 48 hrs by sulforhodamine B assay; settings: SNB-75, 48 h, read-out: Activity
[15] = Cytotoxicity against human HCT116 cells assessed as growth inhibition at 100 uM after 2 days by MTT assay; settings: HCT-116, 48 h, read-out: GI
[16] = Antiproliferative activity against human UACC62 cells assessed as cell growth at 10^-5 M after 48 hrs by sulforhodamine B assay; settings: UACC-62, 48 h, read-out: Activity
[17] = Antiproliferative activity against human PC3 cells assessed as cell growth at 10^-5 M after 48 hrs by sulforhodamine B assay; settings: PC-3, 48 h, read-out: Activity
[18] = system: KM12; test: Antiproliferative activity against human KM12 cells assessed as cell growth at 10^-5 M after 48 hrs by sulforhodamine B assay; settings: KM12, 48 h, read-out: Activity
[19] = Antiproliferative activity against human HCC2998 cells assessed as cell growth at 10^-5 M after 48 hrs by sulforhodamine B assay; settings: HCC 2998, 48 h, read-out: Activity
[20] = Antiproliferative activity against human HCT15 cells assessed as cell growth at 10^-5 M after 48 hrs by sulforhodamine B assay; settings: HCT-15, 48 h, read-out: Activity
[21] = Antiproliferative activity against human HCT116 cells assessed as cell growth at 10^-5 M after 48 hrs by sulforhodamine B assay; settings: HCT-116, 48 h, read-out: Activity
[22] = Antiproliferative activity against human HOP92 cells assessed as cell growth at 10^-5 M after 48 hrs by sulforhodamine B assay; settings: HOP-92, 48 h, read-out: Activity
[23] = system: NCI-H522; test: Antiproliferative activity against human NCI-H522 cells assessed as cell growth at 10^-5 M after 48 hrs by sulforhodamine B assay; settings: NCI-H522, 48 h, read-out: Activity
[24] = Antiproliferative activity against human DU145 cells assessed as cell growth at 10^-5 M after 48 hrs by sulforhodamine B assay; settings: DU-145, 48 h, read-out: Activity
[25] = system: MDA-MB-231; test: Antiproliferative activity against human MDA-MB-231 cells assessed as cell growth at 10^-5 M after 48 hrs by sulforhodamine B assay; settings: MDA-MB-231, 48 h, read-out: Activity
[26] = Antiproliferative activity against human UO31 cells assessed as cell growth at 10^-5 M after 48 hrs by sulforhodamine B assay; settings: UO-31, 48 h, read-out: Activity
[27] = Antiproliferative activity against human SNB19 cells assessed as cell growth at 10^-5 M after 48 hrs by sulforhodamine B assay; settings: SNB-19, 48 h, read-out: Activity
[28] = system: NCI-H460; test: Antiproliferative activity against human NCI-H460 cells assessed as cell growth at 10^-5 M after 48 hrs by sulforhodamine B assay; settings: NCI-H460, 48 h, read-out: Activity
[29] = Antiproliferative activity against human MOLT4 cells assessed as cell growth at 10^-5 M after 48 hrs by sulforhodamine B assay; settings: MOLT-4, 48 h, read-out: Activity
[30] = Antiproliferative activity against human SF295 cells assessed as cell growth at 10^-5 M after 48 hrs by sulforhodamine B assay; settings: SF-295, 48 h, read-out: Activity
[31] = system: EKVX; test: Antiproliferative activity against human EKVX cells assessed as cell growth at 10^-5 M after 48 hrs by sulforhodamine B assay; settings: read-out: Activity
[32] = Antiproliferative activity against human HOP62 cells assessed as cell growth at 10^-5 M after 48 hrs by sulforhodamine B assay; settings: HOP-62, 48 h, read-out: Activity
[33] = system: NCI-H226; test: Antiproliferative activity against human NCI-H226 cells assessed as cell growth at 10^-5 M after 48 hrs by sulforhodamine B assay; settings: NCI-H226, 48 h, read-out: Activity
[34] = system: Malme-3M; test: Antiproliferative activity against human MALME-3M cells assessed as cell growth at 10^-5 M after 48 hrs by sulforhodamine B assay; settings: read-out: Activity
[35] = system: T47D; test: Antiproliferative activity against human T47D cells assessed as cell growth at 10^-5 M after 48 hrs by sulforhodamine B assay; settings: read-out: Activity
[36] = Antiproliferative activity against human IGROV1 cells assessed as cell growth at 10^-5 M after 48 hrs by sulforhodamine B assay; settings: IGROV-1, 48 h, read-out: Activity
[37] = Antiproliferative activity against human COLO205 cells assessed as cell growth at 10^-5 M after 48 hrs by sulforhodamine B assay; settings: COLO 205, 48 h, read-out: Activity

| Structure (SMILES) | growth at 10 µM [1] [%] | growth at 10 µM [2] [%] | inhibition of growth at 100 µM [3] [%] | growth at 10 µM [4] [%] | growth at 10 µM [5] [%] | inhibition of growth at 10 µM [6] [%] | growth at 10 µM [7] [%] | growth at 10 µM [8] [%] | growth at 10 µM [9] [%] | growth at 10 µM [10] [%] | growth at 10 µM [11] [%] | inhibition of growth at 10 µM [12] [%] | growth at 10 µM [13] [%] | growth at 10 µM [14] [%] | inhibition of growth at 100 µM [15] [%] | growth at 10 µM [16] [%] | growth at 10 µM [17] [%] | growth at 10 µM [18] [%] | growth at 10 µM [19] [%] | growth at 10 µM [20] [%] | other results |
| --- | --- | --- | --- | --- | --- | --- | --- | --- | --- | --- | --- | --- | --- | --- | --- | --- | --- | --- | --- | --- | --- |
| CNC(=O)c1cc(Oc2ccc3nc(NC(=O)c4cc(C(F)(F)F)cc(C(F)(F)F)c4)sc3c2)ccn1 | 6 | 5 | 80.4 | 13 | 11 | 8.56 | -9 | 5 | 18 | 32 | -19 | 16.8 | 7 | 10 | 76.9 | 5 | 5 | 2 | 39 | 19 | growth at 10 µM [21]: 7%; growth at 10 µM [22]: -11%; growth at 10 µM [23]: -6%; growth at 10 µM [24]: 16%; growth at 10 µM [25]: -25%; growth at 10 µM [26]: -4%; growth at 10 µM [27]: 16%; growth at 10 µM [28]: 14%; growth at 10 µM [29]: 1%; growth at 10 µM [30]: 1%; growth at 10 µM [31]: 15%; growth at 10 µM [32]: 2%; growth at 10 µM [33]: 19%; growth at 10 µM [34]: -17%; growth at 10 µM [35]: -4%; growth at 10 µM [36]: 27%; growth at 10 µM [37]: -9% |
| CNC(=O)c1cc(Oc2ccc3nc(NC(=O)c4ccc5c(c4)OCCO5)sc3c2)ccn1 | 112 | 89.8 | 62.3 | 98.8 | 97.8 | 50.7 | 97.3 | 88.3 | 99 | 99.1 | 101 | 10.5 | 98.5 | 95.8 | 49.9 | 102 | 95.8 | 95.3 | 103 | 105 | growth at 10 µM [21]: 89.6%; growth at 10 µM [22]: 93.5%; growth at 10 µM [23]: 99.6%; growth at 10 µM [24]: 98.5%; growth at 10 µM [25]: 101%; growth at 10 µM [26]: 94.7%; growth at 10 µM [27]: 101%; growth at 10 µM [28]: 104%; growth at 10 µM [29]: 94.7%; growth at 10 µM [30]: 99.7%; growth at 10 µM [31]: 99%; growth at 10 µM [32]: 104%; growth at 10 µM [33]: 99.6%; growth at 10 µM [34]: 92.5%; growth at 10 µM [35]: 92.1%; growth at 10 µM [36]: 99.5%; growth at 10 µM [37]: 103% |
